# Source: patent US20160038468A1 (priority 2013, published 2016)
# Where two headings read alike, the source gives them in different places.
# How the values were obtained:
# Anaerococcus tetradius = assay: Agar dilution MIC (CLSI), Anaerococcus tetradius vaginal isolates; type: cell-based; conditions: for MIC: read-out: Minimal Inhibitory Concentration (MIC); for Number of strains with indicated MIC: 21 samples
# Finegoldia magna = assay: Agar dilution MIC (CLSI), Finegoldia magna vaginal isolates; type: cell-based; conditions: for MIC: read-out: Minimal Inhibitory Concentration (MIC); for Number of strains with indicated MIC: 20 samples
# [1] = test system: Clostridium difficile, ATCC 700057; conditions: agar dilution testing, from CLSI Table 5; cited from earlier work
# Lactobacilli = conditions: pathogens: Gardnerella vaginalis, Mobiluncus spp, Bacteroides bivius-disiens; cited from earlier work
# [2] = test system: Megasphaera-like bacteria; assay: Agar dilution MIC (CLSI), Megasphaera-like bacteria vaginal isolates; type: cell-based; conditions: for MIC: read-out: Minimal Inhibitory Concentration (MIC); for Number of strains with indicated MIC: 25 samples
# M. curtisii = assay: Agar dilution MIC (CLSI), M. curtisii vaginal isolates; type: cell-based; conditions: for Number of strains with indicated MIC: 14 samples
# Gardnerella vaginalis = assay: Agar dilution MIC (CLSI), Gardnerella vaginalis vaginal isolates; type: cell-based; conditions: for Number of strains with indicated MIC: 100 samples
# Atopobium vaginae = assay: Agar dilution MIC (CLSI), Atopobium vaginae vaginal isolates; type: cell-based; conditions: for Number of strains with indicated MIC: 62 samples
# Mobiluncus spp = assay: Agar dilution MIC (CLSI), Mobiluncus spp vaginal isolate; type: cell-based; conditions: read-out: Minimal Inhibitory Concentration (MIC)
# [3] = test system: bacterial vaginosis (BV) related organisms; assay: Agar dilution MIC (CLSI), 411 vaginal BV related organisms overall; type: cell-based
# Method: The method used was the reference method approved by the Clinical and Laboratory Standards Institute (CLSI). The CLSI is considered the gold standard for determining the lowest concentration of an antimicrobial agent that prevents growth of a microorganism in an agar dilution susceptibility test referred to as the minimal inhibitory concentration (MIC).
# A total of 411 unique microbial isolates recovered from the human vagina of US women from a period of time from 2009 to 2012 were tested for antimicrobial susceptibility by the agar dilution method. A total of 13 analytical runs were conducted in order to analyze all of the samples. See, Example 1.
# A total of 411 unique microbial isolates recovered from the human vagina from 2009-2012 were tested for antimicrobial susceptibility by the agar dilution method. This procedure followed the guidelines of the Clinical Laboratory Standard Institute reference agar dilution method (CLSI).
# The MIC endpoint was read on the test plate. The MIC is that concentration at which a marked reduction occurs in the appearance of growth on the test plate as compared to the amount that of growth on the control plate. Examples of a marked change in growth include a change from confluent growth to a haze, less than 10 tiny colonies, or one to three normal sized colonies. The illustrated figures found in the CLSI manual should be used as a guide.
# Mobiluncus all species = assay: Agar dilution MIC (CLSI), Mobiluncus all species; type: cell-based
# [4] = Anaerococcus tetradius, # tested 21
# [5] = Gardnerella vaginalis, # tested 107
# [6] = Fannyhessea vaginae, # tested 62
smiles,measurement,setting,value
CO[C@H]1/C=C/O[C@@]2(C)Oc3c(C)c(O)c4c(O)c(c5c(nc6cc(C)ccn65)c4c3C2=O)NC(=O)/C(C)=C\C=C\[C@H](C)[C@H](O)[C@@H](C)[C@@H](O)[C@@H](C)[C@H](OC(C)=O)[C@@H]1C [Rifaximin],MIC Range,Anaerococcus tetradius; # tested 21,0.00375 to 0.125 µg/mL
same,MIC,"Anaerococcus tetradius; Anaerococcus tetradius, isolate 601098V T",0.06 µg/mL
same,MIC,"Anaerococcus tetradius; Anaerococcus tetradius, isolate 601103V 21",0.06 µg/mL
same,MIC,"Anaerococcus tetradius; Anaerococcus tetradius, isolate 601175V I",0.125 µg/mL
same,MIC,"Anaerococcus tetradius; Anaerococcus tetradius, isolate 601202V 11",0.06 µg/mL
same,MIC,"Anaerococcus tetradius; Anaerococcus tetradius, isolate 601212V 14",0.06 µg/mL
same,MIC,"Anaerococcus tetradius; Anaerococcus tetradius, isolate 601221V 12",0.00375 µg/mL
same,MIC,"Anaerococcus tetradius; Anaerococcus tetradius, isolate 601222V 15",0.06 µg/mL
same,MIC,"Anaerococcus tetradius; Anaerococcus tetradius, isolate 601242V 17",0.06 µg/mL
same,MIC,"Anaerococcus tetradius; Anaerococcus tetradius, isolate 601256V 9",0.06 µg/mL
same,MIC,"Anaerococcus tetradius; Anaerococcus tetradius, isolate 601287V V",0.06 µg/mL
same,MIC,"Anaerococcus tetradius; Anaerococcus tetradius, isolate 601305V J",0.015 µg/mL
same,MIC,"Anaerococcus tetradius; Anaerococcus tetradius, isolate 601326V H",0.06 µg/mL
same,MIC,"Anaerococcus tetradius; Anaerococcus tetradius, isolate 601340V 25",0.06 µg/mL
same,MIC,"Anaerococcus tetradius; Anaerococcus tetradius, isolate 601342V N",0.06 µg/mL
same,MIC,"Anaerococcus tetradius; Anaerococcus tetradius, isolate 601368V 42",0.06 µg/mL
same,MIC,"Anaerococcus tetradius; Anaerococcus tetradius, isolate 601369V 12",0.03 µg/mL
same,MIC,"Anaerococcus tetradius; Anaerococcus tetradius, isolate 601379V 25",0.06 µg/mL
same,MIC,"Anaerococcus tetradius; Anaerococcus tetradius, isolate 601401V T",0.06 µg/mL
same,MIC,"Anaerococcus tetradius; Anaerococcus tetradius, isolate 601429V 15",0.015 µg/mL
same,MIC,"Anaerococcus tetradius; Anaerococcus tetradius, isolate 601450V 22",0.06 µg/mL
same,MIC,"Anaerococcus tetradius; Anaerococcus tetradius, isolate 602375V 22",0.015 µg/mL
same,MIC50,Anaerococcus tetradius; [4],0.06 µg/mL
same,MIC90,Anaerococcus tetradius; [4],0.06 µg/mL
same,Number of strains with indicated MIC,Anaerococcus tetradius; MIC 0.00375 μg/ml,1
same,Number of strains with indicated MIC,Anaerococcus tetradius; MIC 0.015 μg/ml,3
same,Number of strains with indicated MIC,Anaerococcus tetradius; MIC 0.03 μg/ml,1
same,Number of strains with indicated MIC,Anaerococcus tetradius; MIC 0.06 μg/ml,15
same,Number of strains with indicated MIC,Anaerococcus tetradius; MIC […],1
same,MIC Range,Finegoldia magna; # tested 20,0.125 to 16 µg/mL
same,MIC,"Finegoldia magna; Finegoldia magna, isolate 301303V D",4 µg/mL
same,MIC,"Finegoldia magna; Finegoldia magna, isolate 601205V 39",4 µg/mL
same,MIC,"Finegoldia magna; Finegoldia magna, isolate 601214V F",8 µg/mL
same,MIC,"Finegoldia magna; Finegoldia magna, isolate 601275V c",0.125 µg/mL
same,MIC,"Finegoldia magna; Finegoldia magna, isolate 601276V 23",4 µg/mL
same,MIC,"Finegoldia magna; Finegoldia magna, isolate 601283V 14",4 µg/mL
same,MIC,"Finegoldia magna; Finegoldia magna, isolate 601293V 27",4 µg/mL
same,MIC,"Finegoldia magna; Finegoldia magna, isolate 601295V 25",4 µg/mL
same,MIC,"Finegoldia magna; Finegoldia magna, isolate 601298V 30",4 µg/mL
same,MIC,"Finegoldia magna; Finegoldia magna, isolate 601308V 24",2 µg/mL
same,MIC,"Finegoldia magna; Finegoldia magna, isolate 601315V 17",8 µg/mL
same,MIC,"Finegoldia magna; Finegoldia magna, isolate 601315V 17A",8 µg/mL
same,MIC,"Finegoldia magna; Finegoldia magna, isolate 601320V 24",16 µg/mL
same,MIC,"Finegoldia magna; Finegoldia magna, isolate 601323V K",4 µg/mL
same,MIC,"Finegoldia magna; Finegoldia magna, isolate 601330V c",16 µg/mL
same,MIC,"Finegoldia magna; Finegoldia magna, isolate 601335V c1",4 µg/mL
same,MIC,"Finegoldia magna; Finegoldia magna, isolate 601340V 27",8 µg/mL
same,MIC,"Finegoldia magna; Finegoldia magna, isolate 601359V c",2 µg/mL
same,MIC,"Finegoldia magna; Finegoldia magna, isolate 601363V 6",0.25 µg/mL
same,MIC,"Finegoldia magna; Finegoldia magna, isolate 601367V c",16 µg/mL
same,MIC50,"Finegoldia magna; Finegoldia magna, # tested 20",4 µg/mL
same,MIC90,"Finegoldia magna; Finegoldia magna, # tested 20",16 µg/mL
same,Number of strains with indicated MIC,Finegoldia magna; MIC 8 μg/ml,4
same,Number of strains with indicated MIC,Finegoldia magna; MIC 16 μg/ml,3
same,Number of strains with indicated MIC,Finegoldia magna; MIC […],1
same,Susceptible,"Finegoldia magna; number (%) of isolates, # tested 20",20 (100) μg/ml
same,Acceptable Range of MIC for control strain,[1],0.0039 to 0.0156 µg/mL
same,inhibitory action (MIC50 and MIC90) against Lactobacilli compared with action against pathogenic bacteria,Lactobacilli,"equal to, or even higher than"
same,MIC,"[2]; 427510 h, isolate 427507 H",0.015 µg/mL
same,MIC50,[2]; # tested 25,0.015 µg/mL
same,MIC90,[2]; # tested 25,0.015 µg/mL
same,MIC Range,[2]; # tested 25,0.0075 to 0.015 µg/mL
same,Number of strains with indicated MIC,[2]; MIC 0.0075 μg/ml,3
same,Number of strains with indicated MIC,[2]; MIC 0.015 μg/ml,22
same,MIC,[2]; isolate 426749 T,0.0075 µg/mL
same,MIC,[2]; isolate 426766 Q,0.015 µg/mL
same,MIC,[2]; isolate 426788 8a,0.015 µg/mL
same,MIC,[2]; isolate 426788 C,0.015 µg/mL
same,MIC,[2]; isolate 427470 10,0.015 µg/mL
same,MIC,[2]; isolate 427490 2u,0.015 µg/mL
same,MIC,[2]; isolate 427509 A,0.015 µg/mL
same,MIC,[2]; isolate 427522 8,0.015 µg/mL
same,MIC,[2]; isolate 600770 O,0.015 µg/mL
same,MIC,[2]; isolate 600790 N,0.015 µg/mL
same,MIC,[2]; isolate 600796 V,0.015 µg/mL
same,MIC,[2]; isolate 600831 9,0.015 µg/mL
same,MIC,[2]; isolate 600837 18,0.015 µg/mL
same,MIC,[2]; isolate 600861 P,0.015 µg/mL
same,MIC,[2]; isolate 602236 E3,0.007 µg/mL
same,MIC,[2]; isolate 602241 D,0.015 µg/mL
same,MIC,[2]; isolate 602241 F,0.015 µg/mL
same,MIC,[2]; isolate 602270 A,0.015 µg/mL
same,MIC,[2]; isolate 602282 I,0.015 µg/mL
same,MIC,[2]; isolate 602288 16,0.015 µg/mL
same,MIC,[2]; isolate 602302 22,0.015 µg/mL
same,MIC,[2]; isolate 602305 I,0.015 µg/mL
same,MIC,[2]; isolate 602324 8,0.0075 µg/mL
same,MIC,[2]; isolate 602672 12A,0.015 µg/mL
same,Number of strains with indicated MIC,M. curtisii; MIC 0.015 μg/ml,12
same,Number of strains with indicated MIC,M. curtisii; MIC 0.03 μg/ml,2
same,MIC,"M. curtisii; individual isolates recovered from the vagina 2009-2012, one line per isolate (id in c0/c1 of the row), read-out: Minimal Inhibitory Concentration (MIC)",0.015 µg/mL
same,share of G vaginalis strains against which the agent had activity,Gardnerella vaginalis,~90%
same,MIC50,Gardnerella vaginalis; [5],2 µg/mL
same,MIC90,Gardnerella vaginalis; [5],> 128 µg/mL
same,Number of strains with indicated MIC,Gardnerella vaginalis; MIC 8 μg/ml,3
same,Number of strains with indicated MIC,Gardnerella vaginalis; MIC >[…],11
same,number of Atopobium vaginae strains against which the agent had activity,Atopobium vaginae,62 strains
same,MIC Range,Atopobium vaginae; # tested 62,0.00375 to 0.25 µg/mL
same,MIC50,Atopobium vaginae; [6],0.00375 µg/mL
same,MIC90,Atopobium vaginae; [6],0.015 µg/mL
same,Number of strains with indicated MIC,Atopobium vaginae; MIC 0.00375 μg/ml,43
same,Number of strains with indicated MIC,Atopobium vaginae; MIC 0.0075 μg/ml,10
same,Number of strains with indicated MIC,Atopobium vaginae; MIC 0.015 μg/ml,5
same,Number of strains with indicated MIC,Atopobium vaginae; MIC 0.06 μg/ml,1
same,MIC,Mobiluncus spp,0.03 µg/mL
same,susceptibility of pathogenic strains in respect to clindamycin,"[3]; Prevotella, Anaerococcus, Finegoldia, Peptoniphilus and Atopobium strains",higher susceptibility
same,susceptibility of pathogenic strains in respect to metronidazole,"[3]; Prevotella, Anaerococcus, Peptoniphilus, Atopobium, Megasphera and Mobiluncus strains",higher susceptibility
same,"efficacy against all pathogen vaginal bacteria judged from MICs, in comparison to metronidazole and clindamycin",[3]; in particular when Prevotella strains are present,more efficacious
same,activity on Mobiluncus species,Mobiluncus all species,had activity
same,MIC50,Mobiluncus all species; # tested 40,0.0075 µg/mL
same,MIC90,Mobiluncus all species; # tested 40,0.015 µg/mL
same,MIC Range,Mobiluncus all species; # tested 40,0.0075 to 0.03 µg/mL
same,Susceptible,"Mobiluncus all species; number (%) of isolates, # tested 40",40 (100) μg/ml
